Experimental data published in US20230107941A1, “HEPATITIS B CAPSID ASSEMBLY MODULATORS” (Venatorx Pharmaceuticals, Inc., priority 2019, published 2023).

Assays:
HBV = test: In vitro antiviral assay: anti-HBV replication in HepAD38 cells (extracellular HBV DNA by QPCR); type: cell-based, hepatitis B virus (genotype D, serotype ayw); conditions: Hepatitis B virus, HePAD38, 168 h, 7 days incubation, extracellular HBV DNA by QPCR, read-out: Anti-HBV EC50
Procedure, shortened: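 Read-out is extracellular HBV DNA (copies/mL, QPCR standard curve) after 7-day exposure of tet-free HepAD38 cells to 10-fold dilutions from 1 μM down to 10 pM. Values normalised to DMSO vehicle; EC50 from 4-parameter nonlinear regression, with entecavir validating each run.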

[1] = In vitro cytotoxicity assay (MTT cell viability) in HepG2 cells; type: cell-based, human; conditions: human
Procedure, shortened: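 CC50 was derived by 4-parameter fit of viability relative to vehicle controls, measured as MTT formazan absorbance at 492 nm after 3–4 h of reagent and DMSO solubilization. Before that, HepG2 cells seeded overnight at 20,000/well were incubated 7 days at 37°C with compound from 30 μM down to 1.0 nM in half-log steps.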

| Structure (SMILES) | EC50 (HBV) | CC50 at 7 days [1] |
| --- | --- | --- |
| CCc1c(C(=O)Nc2ccc(F)c(C)c2)c(C)c(C(=O)C(=O)N[C@H]2CC[C@@H](O)CC2)n1C [Example 108, 2-ethyl-N-(4-fluoro-3-methylphenyl)-5-(2-(((1s,4s)-4-hydroxycyclohexyl)amino)-2-oxoacetyl)-1,4-dimethyl-1H-pyrrole-3-carboxamide] | < 0.05 µM | 5 to 30 µM |
| Cc1cc(NC(=O)c2c(C)c(C(=O)C(=O)N[C@]3(C)C[C@H](O)C3)n(C)c2C(C)C)ccc1F [Example 109, N-(4-fluoro-3-methylphenyl)-5-(2-(((1s,3s)-3-hydroxy-1-methylcyclobutyl)amino)-2-oxoacetyl)-2-isopropyl-1,4-dimethyl-1H-pyrrole-3-carboxamide] | 0.05 to 0.499 µM | > 30 µM |
| Cc1cc(NC(=O)c2c(C)c(C(=O)C(=O)N[C@H]3CC[C@@H](S(C)(=O)=O)CC3)n(C)c2C(C)C)ccc1F [Example 110, N-(4-fluoro-3-methylphenyl)-2-isopropyl-1,4-dimethyl-5-(2-(((1s,4s)-4-(methylsulfonyl)cyclohexyl)amino)-2-oxoacetyl)-1H-pyrrole-3-carboxamide] | 0.5 to 1 µM | > 30 µM |
| Cc1cc(NC(=O)c2c(C)c(C(=O)C(=O)N[C@]3(C)CC[C@H](O)CC3)n(C)c2C(C)C)ccc1F [Example 111, N-(4-fluoro-3-methylphenyl)-5-(2-(((1s,4s)-4-hydroxy-1-methylcyclohexyl)amino)-2-oxoacetyl)-2-isopropyl-1,4-dimethyl-1H-pyrrole-3-carboxamide] | < 0.05 µM | > 30 µM |
| Cc1cc(NC(=O)c2c(C)c(C(=O)C(=O)N[C@H]3CC[C@@H](O)CC3)n(C)c2C(C)C)ccc1F [Example 112, N-(4-fluoro-3-methylphenyl)-5-(2-(((1s,4s)-4-hydroxycyclohexyl)amino)-2-oxoacetyl)-2-isopropyl-1,4-dimethyl-1H-pyrrole-3-carboxamide] | 0.05 to 0.499 µM | > 30 µM |
| Cc1cc(NC(=O)c2c(C)c(C(=O)C(=O)NCC(C)(C)O)n(C)c2C(C)C)ccc1F [Example 113, N-(4-fluoro-3-methylphenyl)-5-(2-((2-hydroxy-2-methylpropyl)amino)-2-oxoacetyl)-2-isopropyl-1,4-dimethyl-1H-pyrrole-3-carboxamide] | 0.05 to 0.499 µM | > 30 µM |
| Cc1cc(NC(=O)c2c(C)c(C(=O)C(=O)N[C@]3(C)CC[C@H](O)CC3)n(C)c2C2CC2)ccc1F [Example 114, 2-cyclopropyl-N-(4-fluoro-3-methylphenyl)-5-(2-(((1s,4s)-4-hydroxy-1-methylcyclohexyl)amino)-2-oxoacetyl)-1,4-dimethyl-1H-pyrrole-3-carboxamide] | < 0.05 µM | > 30 µM |
| Cc1cc(NC(=O)c2c(C)c(C(=O)C(=O)N[C@H]3CC[C@@H](O)CC3)n(C)c2C2CC2)ccc1F [Example 115, 2-cyclopropyl-N-(4-fluoro-3-methylphenyl)-5-(2-(((1s,4s)-4-hydroxycyclohexyl)amino)-2-oxoacetyl)-1,4-dimethyl-1H-pyrrole-3-carboxamide] | < 0.05 µM | > 30 µM |
| Cc1cc(NC(=O)c2c(C)c(C(=O)C(=O)N[C@]3(C)C[C@H](O)C3)n(C)c2C2CCCCC2)ccc1F [Example 116, 2-cyclohexyl-N-(4-fluoro-3-methylphenyl)-5-(2-(((1s,3s)-3-hydroxy-1-methylcyclobutyl)amino)-2-oxoacetyl)-1,4-dimethyl-1H-pyrrole-3-carboxamide] | 0.5 to 1 µM | > 30 µM |
| Cc1cc(NC(=O)c2c(C)c(C(=O)C(=O)N[C@H]3CC[C@@H](S(C)(=O)=O)CC3)n(C)c2C2CCCCC2)ccc1F [Example 117, 2-cyclohexyl-N-(4-fluoro-3-methylphenyl)-1,4-dimethyl-5-(2-(((1s,4s)-4-(methylsulfonyl)cyclohexyl)amino)-2-oxoacetyl)-1H-pyrrole-3-carboxamide] | > 1 µM | > 30 µM |
| Cc1cc(NC(=O)c2c(C)c(C(=O)C(=O)N[C@]3(C)CC[C@H](O)CC3)n(C)c2C2CCCCC2)ccc1F [Example 118, 2-cyclohexyl-N-(4-fluoro-3-methylphenyl)-5-(2-(((1s,4s)-4-hydroxy-1-methylcyclohexyl)amino)-2-oxoacetyl)-1,4-dimethyl-1H-pyrrole-3-carboxamide] | 0.5 to 1 µM | > 30 µM |
| Cc1cc(NC(=O)c2c(C)c(C(=O)C(=O)N[C@H]3CC[C@@H](O)CC3)n(C)c2C2CCCCC2)ccc1F [Example 119, 2-cyclohexyl-N-(4-fluoro-3-methylphenyl)-5-(2-(((1s,4s)-4-hydroxycyclohexyl)amino)-2-oxoacetyl)-1,4-dimethyl-1H-pyrrole-3-carboxamide] | 0.5 to 1 µM | 5 to 30 µM |
| Cc1cc(NC(=O)c2c(C)c(C(=O)C(=O)NCC(C)(C)O)n(C)c2C2CCCCC2)ccc1F [Example 120, 2-cyclohexyl-N-(4-fluoro-3-methylphenyl)-5-(2-((2-hydroxy-2-methylpropyl)amino)-2-oxoacetyl)-1,4-dimethyl-1H-pyrrole-3-carboxamide] | > 1 µM | > 30 µM |
| Cc1cc(NC(=O)c2c(C)c(C(=O)C(=O)N[C@H]3CC[C@@H](OCC(=O)NCCOCCOCCOCCOCCOCCOCCOCCNC(=O)CCCCC4SCC5NC(=O)NC54)CC3)n(C)c2C)ccc1F (stereo partly drawn) [Example 121, 5-(2-(((1s,4s)-4-((2,28-dioxo-32-(2-oxohexahydro-1H-thieno[3,4-d]imidazol-4-yl)-6,9,12,15,18,21,24-heptaoxa-3,27-diazadotriacontyl)oxy)cyclohexyl)amino)-2-oxoacetyl)-N-(4-fluoro-3-methylphenyl)-1,2,4-trimethyl-1H-pyrrole-3-carboxamide] | > 1 µM | > 30 µM |
| Cc1cc(NC(=O)c2c(C)c(C(=O)C(=O)N[C@@H]3CC[C@H](O)C[C@@H]3F)n(C)c2C)ccc1F [Example 122, N-(4-fluoro-3-methylphenyl)-5-(2-(((1R,2S,4S)-2-fluoro-4-hydroxycyclohexyl)amino)-2-oxoacetyl)-1,2,4-trimethyl-1H-pyrrole-3-carboxamide] | < 0.05 µM | 5 to 30 µM |
| Cc1cc(NC(=O)c2c(C)c(C(=O)C(=O)N[C@]3(C)C[C@H](O)C3)n(C)c2CC2CC2)ccc1F [Example 123, 2-(cyclopropylmethyl)-N-(4-fluoro-3-methylphenyl)-5-(2-(((1s,3s)-3-hydroxy-1-methylcyclobutyl)amino)-2-oxoacetyl)-1,4-dimethyl-1H-pyrrole-3-carboxamide] | < 0.05 µM | > 30 µM |
| Cc1cc(NC(=O)c2c(C)c(C(=O)C(=O)N[C@H]3CC[C@@H](S(C)(=O)=O)CC3)n(C)c2CC2CC2)ccc1F [Example 124, 2-(cyclopropylmethyl)-N-(4-fluoro-3-methylphenyl)-1,4-dimethyl-5-(2-(((1s,4s)-4-(methylsulfonyl)cyclohexyl)amino)-2-oxoacetyl)-1H-pyrrole-3-carboxamide] | 0.05 to 0.499 µM | > 30 µM |
| Cc1cc(NC(=O)c2c(C)c(C(=O)C(=O)N[C@]3(C)CC[C@H](O)CC3)n(C)c2CC2CC2)ccc1F [Example 125, 2-(cyclopropylmethyl)-N-(4-fluoro-3-methylphenyl)-5-(2-(((1s,4s)-4-hydroxy-1-methylcyclohexyl)amino)-2-oxoacetyl)-1,4-dimethyl-1H-pyrrole-3-carboxamide] | < 0.05 µM | > 30 µM |
| Cc1cc(NC(=O)c2c(C)c(C(=O)C(=O)N[C@H]3CC[C@@H](O)CC3)n(C)c2CC2CC2)ccc1F [Example 126, 2-(cyclopropylmethyl)-N-(4-fluoro-3-methylphenyl)-5-(2-(((1s,4s)-4-hydroxycyclohexyl)amino)-2-oxoacetyl)-1,4-dimethyl-1H-pyrrole-3-carboxamide] | < 0.05 µM | > 30 µM |
| Cc1cc(NC(=O)c2c(C)c(C(=O)C(=O)NCC(C)(C)O)n(C)c2CC2CC2)ccc1F [Example 127, 2-(cyclopropylmethyl)-N-(4-fluoro-3-methylphenyl)-5-(2-((2-hydroxy-2-methylpropyl)amino)-2-oxoacetyl)-1,4-dimethyl-1H-pyrrole-3-carboxamide] | < 0.05 µM | 5 to 30 µM |
| Cc1cc(NC(=O)c2c(C)c(C(=O)C(=O)N[C@]3(C)C[C@H](O)C3)n(C)c2C2CC2)ccc1F [Example 128, 2-cyclopropyl-N-(4-fluoro-3-methylphenyl)-5-(2-(((1s,3s)-3-hydroxy-1-methylcyclobutyl)amino)-2-oxoacetyl)-1,4-dimethyl-1H-pyrrole-3-carboxamide] | < 0.05 µM | > 30 µM |
| Cc1cc(NC(=O)c2c(C)c(C(=O)C(=O)N[C@H]3CC[C@@H](S(C)(=O)=O)CC3)n(C)c2C2CC2)ccc1F [Example 129, 2-cyclopropyl-N-(4-fluoro-3-methylphenyl)-1,4-dimethyl-5-(2-(((1s,4s)-4-(methylsulfonyl)cyclohexyl)amino)-2-oxoacetyl)-1H-pyrrole-3-carboxamide] | < 0.05 µM | > 30 µM |
| Cc1cc(NC(=O)c2c(C)c(C(=O)C(=O)NCC(C)(C)O)n(C)c2C2CC2)ccc1F [Example 130, 2-cyclopropyl-N-(4-fluoro-3-methylphenyl)-5-(2-((2-hydroxy-2-methylpropyl)amino)-2-oxoacetyl)-1,4-dimethyl-1H-pyrrole-3-carboxamide] | < 0.05 µM | 5 to 30 µM |
| Cc1cc(NC(=O)c2c(C)c(C(=O)C(=O)N[C@H]3CC[C@@H](S(C)(=O)=O)CC3)n(C)c2C2CCCC2)ccc1F [Example 131, 2-cyclopentyl-N-(4-fluoro-3-methylphenyl)-1,4-dimethyl-5-(2-(((1s,4s)-4-(methylsulfonyl)cyclohexyl)amino)-2-oxoacetyl)-1H-pyrrole-3-carboxamide] | > 1 µM | 5 to 30 µM |
